Here are results for nine compounds from patent US9580416B2, “Inhibitors of Bruton's tyrosine kinase” (PHARMACYCLICS LLC, priority 2014, dated 2017).

The structures appear in SMILES notation. Some results are limits rather than exact numbers.

What all share (format): biochemical
One assay deals with T1, JAK3 (Homo sapiens, UniProt P52333).
T1 sequence (P52333 1-1124): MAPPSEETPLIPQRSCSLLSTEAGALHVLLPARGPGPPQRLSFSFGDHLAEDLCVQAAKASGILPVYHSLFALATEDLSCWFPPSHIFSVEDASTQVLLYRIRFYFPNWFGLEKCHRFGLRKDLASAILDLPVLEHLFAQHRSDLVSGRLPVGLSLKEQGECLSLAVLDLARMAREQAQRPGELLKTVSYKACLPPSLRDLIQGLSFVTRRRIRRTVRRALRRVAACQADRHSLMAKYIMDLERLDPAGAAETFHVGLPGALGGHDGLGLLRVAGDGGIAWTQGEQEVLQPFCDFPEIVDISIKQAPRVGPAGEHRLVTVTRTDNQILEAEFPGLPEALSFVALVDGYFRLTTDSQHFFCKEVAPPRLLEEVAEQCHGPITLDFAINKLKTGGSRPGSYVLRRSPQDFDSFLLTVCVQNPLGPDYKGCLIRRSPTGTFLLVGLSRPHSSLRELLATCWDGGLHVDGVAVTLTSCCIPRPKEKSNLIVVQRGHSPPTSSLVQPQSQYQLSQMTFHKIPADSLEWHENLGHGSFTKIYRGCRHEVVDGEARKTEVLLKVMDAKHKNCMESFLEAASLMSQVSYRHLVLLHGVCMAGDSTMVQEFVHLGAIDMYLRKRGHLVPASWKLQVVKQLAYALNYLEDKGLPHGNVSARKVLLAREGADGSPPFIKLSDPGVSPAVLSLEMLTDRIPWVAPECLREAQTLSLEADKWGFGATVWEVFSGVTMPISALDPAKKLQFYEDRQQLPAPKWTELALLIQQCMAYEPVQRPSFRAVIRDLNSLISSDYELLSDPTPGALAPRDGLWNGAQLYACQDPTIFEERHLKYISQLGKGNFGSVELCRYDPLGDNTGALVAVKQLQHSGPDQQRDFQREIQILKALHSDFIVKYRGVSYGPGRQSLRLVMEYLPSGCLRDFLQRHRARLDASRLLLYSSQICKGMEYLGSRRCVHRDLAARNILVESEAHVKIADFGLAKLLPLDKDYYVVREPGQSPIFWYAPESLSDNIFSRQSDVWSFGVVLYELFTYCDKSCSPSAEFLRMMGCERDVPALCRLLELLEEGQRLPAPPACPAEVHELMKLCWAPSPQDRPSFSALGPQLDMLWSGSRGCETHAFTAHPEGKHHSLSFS
Description: Inhibition of a panel of kinases, in vitro HotSpot kinase assay: JAK3. As for the experimental part:
(§1) The degree of inhibition of a panel of kinases is determined using the in vitro HotSpot kinase assay (purified enzymes, ^33P-ATP, an appropriate substrate and 1 uM ATP).

A further assay has as its target EGFR (Homo sapiens, UniProt P00533). Description: Inhibition of a panel of kinases, in vitro HotSpot kinase assay: EGFR. The method, then: as §1
A further assay deals with Btk (Homo sapiens, UniProt Q06187). Description: Btk kinase activity, TR-FRET assay. The conditions noted are these: read-out: Btk (IC50). The procedure, abridged: (§2)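 Enzyme (Btk 0.5 nM; Lck 6 nM) reacted 1 h with inhibitor, ATP at Km and biotin-peptide substrate in pH 7.4 buffer, 10% DMSO. Phosphopeptide detected by Eu-p-Tyr100 antibody plus streptavidin-APC (665/615 nm). IC50 calculated from fitted Ki(app) via ATP/Km correction plus half total enzyme.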
In general terms: In TR-FRET formats the signal depends on donor and acceptor labels being close together.

Another assay deals with Lck (Homo sapiens, UniProt P06239). Description: Lck kinase activity, TR-FRET assay. The conditions noted are these: read-out: LCK (IC50). The procedure, abridged: as §2
Sequence of Lck (P06239 whole entry, species assumed): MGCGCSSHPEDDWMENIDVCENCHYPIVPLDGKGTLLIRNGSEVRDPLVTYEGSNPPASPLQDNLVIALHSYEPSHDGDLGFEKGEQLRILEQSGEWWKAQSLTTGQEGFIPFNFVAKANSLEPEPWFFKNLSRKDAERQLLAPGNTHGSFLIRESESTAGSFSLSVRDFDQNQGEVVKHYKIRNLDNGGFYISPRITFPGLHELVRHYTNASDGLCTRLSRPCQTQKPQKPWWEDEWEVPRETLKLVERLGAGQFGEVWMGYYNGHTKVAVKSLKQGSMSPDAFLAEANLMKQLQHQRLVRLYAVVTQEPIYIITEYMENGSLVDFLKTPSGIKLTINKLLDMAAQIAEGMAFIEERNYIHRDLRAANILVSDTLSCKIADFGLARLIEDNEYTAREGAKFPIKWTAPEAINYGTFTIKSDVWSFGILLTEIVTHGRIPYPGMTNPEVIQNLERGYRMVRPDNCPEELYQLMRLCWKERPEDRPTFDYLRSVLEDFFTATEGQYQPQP

Sequence of Btk (Q06187 whole entry): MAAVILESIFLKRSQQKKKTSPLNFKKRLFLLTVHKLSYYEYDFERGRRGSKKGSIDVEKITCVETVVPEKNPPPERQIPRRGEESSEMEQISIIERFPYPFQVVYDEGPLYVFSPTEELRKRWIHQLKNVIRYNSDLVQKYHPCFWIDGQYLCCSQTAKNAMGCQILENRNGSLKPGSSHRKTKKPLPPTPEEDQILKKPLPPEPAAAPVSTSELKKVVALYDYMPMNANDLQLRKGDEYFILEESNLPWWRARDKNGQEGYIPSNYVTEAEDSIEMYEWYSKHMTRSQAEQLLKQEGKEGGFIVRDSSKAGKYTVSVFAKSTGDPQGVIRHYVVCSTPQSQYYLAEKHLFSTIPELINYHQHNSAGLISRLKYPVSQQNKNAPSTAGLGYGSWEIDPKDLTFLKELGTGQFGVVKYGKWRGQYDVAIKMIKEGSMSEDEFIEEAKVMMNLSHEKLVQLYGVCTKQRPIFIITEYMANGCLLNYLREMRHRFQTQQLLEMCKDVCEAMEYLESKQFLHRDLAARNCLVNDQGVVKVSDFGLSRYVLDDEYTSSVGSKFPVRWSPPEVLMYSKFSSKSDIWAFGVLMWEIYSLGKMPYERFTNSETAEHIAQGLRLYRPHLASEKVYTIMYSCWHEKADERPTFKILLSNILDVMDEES
Sequence of EGFR (P00533 25-1210): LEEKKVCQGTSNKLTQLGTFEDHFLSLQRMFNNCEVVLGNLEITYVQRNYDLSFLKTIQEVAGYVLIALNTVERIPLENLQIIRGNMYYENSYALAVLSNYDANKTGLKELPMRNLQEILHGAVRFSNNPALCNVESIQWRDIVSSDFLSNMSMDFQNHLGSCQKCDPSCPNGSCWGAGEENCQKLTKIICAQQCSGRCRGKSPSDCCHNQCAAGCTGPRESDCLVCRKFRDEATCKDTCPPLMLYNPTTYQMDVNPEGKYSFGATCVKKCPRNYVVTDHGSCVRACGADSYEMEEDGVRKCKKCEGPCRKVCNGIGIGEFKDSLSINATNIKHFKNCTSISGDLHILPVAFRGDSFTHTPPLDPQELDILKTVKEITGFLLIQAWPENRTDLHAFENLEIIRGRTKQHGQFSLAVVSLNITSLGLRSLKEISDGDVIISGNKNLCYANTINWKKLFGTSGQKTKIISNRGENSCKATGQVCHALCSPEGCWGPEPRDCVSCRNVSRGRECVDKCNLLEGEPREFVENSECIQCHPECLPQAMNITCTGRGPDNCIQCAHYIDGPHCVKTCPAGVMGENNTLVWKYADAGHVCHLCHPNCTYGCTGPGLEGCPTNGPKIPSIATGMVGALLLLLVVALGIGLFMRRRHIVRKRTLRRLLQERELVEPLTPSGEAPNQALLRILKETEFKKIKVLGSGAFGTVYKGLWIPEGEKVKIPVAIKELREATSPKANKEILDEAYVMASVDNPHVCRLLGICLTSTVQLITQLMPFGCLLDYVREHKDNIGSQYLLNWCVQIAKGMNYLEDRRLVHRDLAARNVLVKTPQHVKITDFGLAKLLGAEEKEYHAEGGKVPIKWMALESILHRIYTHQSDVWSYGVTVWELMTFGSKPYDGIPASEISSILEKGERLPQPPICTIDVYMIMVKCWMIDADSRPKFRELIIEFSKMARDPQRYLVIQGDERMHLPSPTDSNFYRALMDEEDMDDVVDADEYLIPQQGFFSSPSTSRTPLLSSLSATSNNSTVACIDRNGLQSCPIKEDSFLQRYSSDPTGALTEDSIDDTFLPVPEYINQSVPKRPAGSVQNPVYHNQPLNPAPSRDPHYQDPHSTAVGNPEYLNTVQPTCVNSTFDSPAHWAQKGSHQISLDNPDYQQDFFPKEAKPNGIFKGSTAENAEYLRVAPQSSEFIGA

In general, IC50 refers to the midpoint of a concentration-inhibition curve. Regarding `C=CC(=O)N1CCC[C@@H](Nc2n[nH]c3nccc(Oc4ccc(C(=O)Nc5nnc(C)s5)cc4)c23)C1` [compound 187], the IC50 on JAK3 was < 100 nM; against EGFR it was 100 to 1000 nM; at Btk, 100 to 1000 nM; on Lck, > 10000 nM.
With `Cc1ccnc(NC(=O)c2ccc(Oc3ccnc4[nH]nc(N[C@@H]5CCCN(C(=O)c6ccc(Cl)cc6)C5)c34)cc2)c1` [compound 244, (R)-4-(3-(1-(4-chlorobenzoyl)piperidin-3-ylamino)-1H-pyrazolo[3,4-b]pyridin-4-yloxy)-N-(4-methylpyridin-2-yl)benzamide], the 50% inhibitory concentration (IC50) was > 10000 nM on JAK3, < 100 nM at Btk and 1000 to 10000 nM on Lck.
`Cc1ccnc(NC(=O)c2ccc(Oc3ccnc4[nH]nc(N[C@@H]5CCCN(C(=O)c6cccc(F)c6)C5)c34)cc2)c1` [compound 247, (R)-4-(3-(1-(3-fluorobenzoyl)piperidin-3-ylamino)-1H-pyrazolo[3,4-b]pyridin-4-yloxy)-N-(4-methylpyridin-2-yl)benzamide]: the IC50 was > 10000 nM on JAK3, < 100 nM on Btk and 1000 to 10000 nM on Lck.
Take `Cc1ccnc(NC(=O)c2ccc(Oc3ccnc4[nH]nc(N[C@@H]5CCCN(C(=O)c6ccc(F)cc6)C5)c34)cc2)c1` [compound 243, (R)-4-(3-(1-(4-fluorobenzoyl)piperidin-3-ylamino)-1H-pyrazolo[3,4-b]pyridin-4-yloxy)-N-(4-methylpyridin-2-yl)benzamide]: the half-maximal inhibitory concentration (IC50) was > 10000 nM on JAK3, < 100 nM at Btk and 1000 to 10000 nM at Lck.
Turning to `COCCNc1n[nH]c2nccc(Oc3ccc(C(=O)Nc4cc(C(F)(F)F)ccn4)cc3)c12` [compound 236, 4-({3-[(2-methoxyethyl)amino]-1H-pyrazolo[3,4-b]pyridin-4-yl}oxy)-N-[4-(trifluoromethyl)pyridin-2-yl]benzamide], the IC50 against JAK3 is > 10000 nM; against EGFR it was 1000 to 10000 nM; on Btk, 100 to 1000 nM.
Take `C=CC(=O)N1CCC[C@@H](Nc2n[nH]c3nccc(Nc4cccc(C(=O)Nc5ccc(C(C)C)c(C)c5)c4)c23)C1` [compound 129, N-[3-methyl-4-(propan-2-yl)phenyl]-3-[(3-{[(3R)-1-(prop-2-enoyl)piperidin-3-yl]amino}-1H-pyrazolo[3,4-b]pyridin-4-yl)amino]benzamide]: the IC50 against JAK3 is < 100 nM; at Btk, < 100 nM; at Lck, 1000 to 10000 nM.
Take `Cc1ccc(C(=O)N2CCC[C@@H](Nc3n[nH]c4nccc(Oc5ccc(C(=O)Nc6cc(C)ccn6)cc5)c34)C2)cc1` [compound 245, (R)-4-(3-(1-(4-methylbenzoyl)piperidin-3-ylamino)-1H-pyrazolo[3,4-b]pyridin-4-yloxy)-N-(4-methylpyridin-2-yl)benzamide]: the figures for the half-inhibitory concentration (IC50) on JAK3, at Btk and on Lck were > 10000 nM, < 100 nM and 1000 to 10000 nM, respectively.
As to `CCNC(=O)N1CCC[C@@H](Nc2n[nH]c3nccc(Oc4ccc(Oc5ccccc5)cc4C)c23)C1` [compound 235, (3R)-N-ethyl-3-{[4-(2-methyl-4-phenoxyphenoxy)-1H-pyrazolo[3,4-b]pyridin-3-yl]amino}piperidine-1-carboxamide], the IC50 at JAK3 was > 10000 nM; against EGFR, 1000 to 10000 nM; at Btk, < 100 nM.
Turning to `Cc1cc(NC(=O)c2cccc(Nc3ccnc4[nH]nc(N[C@@H]5CCCN(C(=O)C6CC6)C5)c34)c2)ccc1C(C)C` [compound 127, 3-[(3-{[(3R)-1-cyclopropanecarbonylpiperidin-3-yl]amino}-1H-pyrazolo[3,4-b]pyridin-4-yl)amino]-N-[3-methyl-4-(propan-2-yl)phenyl]benzamide], the IC50 on JAK3 is > 10000 nM; at Btk it was 100 to 1000 nM; at Lck it was 1000 to 10000 nM.
